Test results: ChEMBL document CHEMBL1201862, “PubChem BioAssay data set” (2004)
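How tested: cells in 96-well plates exposed to compound for 48 hours at five concentrations. Here, GI50 denotes the concentration required for 50% inhibition of growth.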 Activity calls are given as the source filed them. No stated cut-off is given here; in the data, active = GI50 up to about 1.1 µM and inactive = higher.

Assays:
Assay in all cases: growth of human tumour cells (NCI), 48 h
[1] = system: LOX IMVI
[2] = system: COLO 205
[3] = system: CCRF-CEM
[4] = system: MOLT-4
[5] = system: M19-MEL
[6] = system: DLD-1
[7] = system: IGROV-1
[8] = system: HOP-18
[9] = system: UACC-257
[10] = system: HCT-116
[11] = system: SW-620
[12] = system: SF-539
[13] = system: ACHN
[14] = system: SF-295
[15] = system: HT-29
[16] = system: NCI-H460
[17] = system: CAKI-1
[18] = system: 786-0
[19] = system: SR
[20] = system: HOP-92
[21] = system: Malme-3M
[22] = system: NCI-H226
[23] = system: UO-31
[24] = system: SN12C
[25] = system: UACC-62
[26] = system: SF-268
[27] = system: OVCAR-3
[28] = system: HOP-62
[29] = system: SK-MEL-5
[30] = system: SK-MEL-28
[31] = system: NCI-H522
[32] = system: U-251
[33] = system: SK-MEL-2
[34] = system: KM12
[35] = system: NCI-H23
[36] = system: DMS-273
[37] = system: HL-60
[38] = system: A549
[39] = system: SNB-75
[40] = system: LXFL 529
[41] = system: OVCAR-8
[42] = system: OVCAR-5
[43] = system: DMS-114
[44] = system: SNB-19
[45] = system: M14
[46] = system: OVCAR-4
[47] = system: K562
[48] = system: SK-OV-3
[49] = system: HCT-15
[50] = system: RPMI-8226
[51] = system: TK-10
[52] = system: RXF 393
[53] = system: KM-20L2
[54] = system: SNB-78
[55] = system: EKVX

O=C(c1ccco1)N(C(=S)N1CCN(c2ccccc2)CC1)c1ccccc1
GI50 [1]: > 100 µM (inactive) | GI50 [2]: > 100 µM (inactive) | GI50 [3]: > 100 µM (inactive) | GI50 [4]: > 100 µM (inactive) | GI50 [5]: > 100 µM (inactive) | GI50 [6]: > 100 µM (inactive) | GI50 [7]: > 100 µM (inactive) | GI50 [8]: > 100 µM (inactive) | GI50 [9]: > 100 µM (inactive) | GI50 [10]: > 100 µM (inactive) | GI50 [11]: > 100 µM (inactive) | GI50 [12]: > 100 µM (inactive) | GI50 [13]: > 100 µM (inactive) | GI50 [14]: > 100 µM (inactive) | GI50 [15]: > 100 µM (inactive) | GI50 [16]: > 100 µM (inactive) | GI50 [17]: > 100 µM (inactive) | GI50 [18]: > 100 µM (inactive) | GI50 [19]: 72.4 µM (inactive) | GI50 [20]: > 100 µM (inactive) | GI50 [21]: > 100 µM (inactive) | GI50 [22]: 25.6 µM (inactive) | GI50 [23]: 66.8 µM (inactive) | GI50 [24]: > 100 µM (inactive) | GI50 [25]: > 100 µM (inactive) | GI50 [26]: > 100 µM (inactive) | GI50 [27]: > 100 µM (inactive) | GI50 [28]: > 100 µM (inactive) | GI50 [29]: > 100 µM (inactive) | GI50 [30]: > 100 µM (inactive) | GI50 [31]: > 100 µM (inactive) | GI50 [32]: > 100 µM (inactive) | GI50 [33]: > 100 µM (inactive) | GI50 [34]: > 100 µM (inactive) | GI50 [35]: > 100 µM (inactive) | GI50 [36]: > 100 µM (inactive) | GI50 [37]: > 100 µM (inactive) | GI50 [38]: > 100 µM (inactive) | GI50 [39]: > 100 µM (inactive) | GI50 [40]: > 100 µM (inactive) | GI50 [41]: > 100 µM (inactive) | GI50 [42]: > 100 µM (inactive) | GI50 [43]: > 100 µM (inactive) | GI50 [44]: > 100 µM (inactive) | GI50 [45]: > 100 µM (inactive) | GI50 [46]: > 100 µM (inactive) | GI50 [47]: > 100 µM (inactive) | GI50 [48]: > 100 µM (inactive) | GI50 [49]: > 100 µM | GI50 [50]: > 100 µM (inactive) | GI50 [51]: > 100 µM (inactive) | GI50 [52]: > 100 µM (inactive) | GI50 [53]: > 100 µM (inactive) | GI50 [54]: > 100 µM (inactive)

O=c1[nH]cnc2c(COCCCO)c[nH]c12
GI50 [1]: > 100 µM (inactive) | GI50 [2]: > 100 µM (inactive) | GI50 [3]: > 100 µM (inactive) | GI50 [4]: > 100 µM (inactive) | GI50 [5]: > 100 µM (inactive) | GI50 [6]: > 100 µM (inactive) | GI50 [7]: > 100 µM (inactive) | GI50 [8]: > 100 µM (inactive) | GI50 [9]: > 100 µM (inactive) | GI50 [10]: > 100 µM (inactive) | GI50 [11]: > 100 µM (inactive) | GI50 [13]: > 100 µM (inactive) | GI50 [14]: > 100 µM (inactive) | GI50 [15]: > 100 µM (inactive) | GI50 [17]: > 100 µM (inactive) | GI50 [18]: > 100 µM (inactive) | GI50 [19]: > 100 µM (inactive) | GI50 [20]: > 100 µM (inactive) | GI50 [55]: > 100 µM (inactive) | GI50 [21]: > 100 µM (inactive) | GI50 [23]: > 100 µM (inactive) | GI50 [24]: > 100 µM (inactive) | GI50 [25]: > 100 µM (inactive) | GI50 [26]: > 100 µM (inactive) | GI50 [27]: > 100 µM (inactive) | GI50 [28]: > 100 µM (inactive) | GI50 [29]: > 100 µM (inactive) | GI50 [30]: > 100 µM (inactive) | GI50 [31]: > 100 µM (inactive) | GI50 [32]: > 100 µM (inactive) | GI50 [33]: > 100 µM (inactive) | GI50 [34]: > 100 µM (inactive) | GI50 [35]: > 100 µM (inactive) | GI50 [37]: > 100 µM (inactive) | GI50 [38]: > 100 µM (inactive) | GI50 [39]: > 100 µM (inactive) | GI50 [40]: > 100 µM (inactive) | GI50 [41]: > 100 µM (inactive) | GI50 [42]: 61.5 µM (inactive) | GI50 [43]: > 100 µM (inactive) | GI50 [44]: > 100 µM (inactive) | GI50 [45]: > 100 µM (inactive) | GI50 [47]: > 100 µM (inactive) | GI50 [48]: > 100 µM (inactive) | GI50 [49]: > 100 µM | GI50 [50]: > 100 µM (inactive) | GI50 [51]: > 100 µM (inactive) | GI50 [52]: > 100 µM (inactive) | GI50 [53]: > 100 µM (inactive) | GI50 [54]: > 100 µM (inactive)
